Experiments:
egg white avidin = target: T1, egg white avidin (Gallus gallus, UniProt P02701); experiment: Cyclic / square wave voltammetry of the complexes before and after addition of avidin; format: binding; settings: for current signal after addition of biotin to the avidin-bound complex (displacement): 25 equiv (25-fold excess) of biotin; for current signal of the redox couple upon addition of avidin: CV, glassy carbon electrode
T1 construct: Egg white avidin (Molecular Probes); purchased Molecular Probes; host or cells: egg white
Description: All operations involving Ru were carried out under argon according to standard Schlenk techniques. [(H2O)Ru(NH3)5]^2+ was either generated and isolated as the PF6^− salt according to the literature procedure and then used or the or Cl^− salt was used directly (See, e.g., Callahan et al., Inorg. Chem. 1975, 14, 1443-1453). Electrochemical experiments were carried out using a CH Instruments 660A workstation, a glassy carbon working electrode, a Ag/AgCl reference electrode and a platinum wire counter electrode.
A solution of [(4-BMP)Ru(NH3)5](PF6)2 in pH 9.3 phosphate buffer was prepared and the cyclic voltammogram obtained.
A solution of 1.0 mg [(4-DMP)Ru(NH3)5](PF6)2 in 4.2 mL 0.5M NaCl in H2O was prepared and the cyclic voltammogram obtained. […] To this was added 26 mg avidin, the CV obtained, and then 0.25 mL of a solution of methyl viologen (10 mg/5 mL; 7.77×10^−3M) was added and the CV remeasured.
A 19 mg portion of avidin was added, the CV and square wave voltammograms were recorded.
A 4.8×10^−5 M solution (0.75 mg) of [(4-DPEP)Ru(NH3)5](PF6)2 in pH 7.18 phosphate buffer was prepared and the cyclic voltammogram obtained.
The electrochemical experiments were performed in phosphate buffer at pH 9.3, 8.1, and 7.3, in 0.5M NaCl solution, and in pH 7.3 HEPES buffer.

avidin [1] = target: T2, avidin (Gallus gallus, UniProt P02701); experiment: Oxidation by [Ru(NH3)6]^3+, decrease of UV-visible absorption at 410 nm over time, free vs avidin-bound; settings: oxidant [Ru(NH3)6]^3+
Description: In the case of [(4-DPEP)Ru(NH3)5]^2+ the oxidant [Ru(NH3)6]^3+ was added and the decrease of the UV-visible absorption at 410 nm was monitored over time.

avidin [2] = target: T2, avidin; settings: non-covalent protein-small molecule interaction; cited from earlier work

T1 sequence (P02701 25-152): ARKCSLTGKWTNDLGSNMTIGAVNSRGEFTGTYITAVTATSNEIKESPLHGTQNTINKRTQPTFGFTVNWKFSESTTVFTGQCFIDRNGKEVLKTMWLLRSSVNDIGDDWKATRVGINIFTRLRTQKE
T2 sequence (P02701 25-152): as above

Compound | current signal after addition of biotin to the avidin-bound complex (displacement) (egg white avidin) | current signal after addition of biotin to the avidin-bound complex (displacement) (egg white avidin; listed as [(4-DMP)Ru(NH3)5](PF6)2) | current signal of the redox couple upon addition of avidin (egg white avidin) | effect of added electrochemical mediators on the current signal of the Ru couple (egg white avidin; avidin present, mediators 4,4′-bipyridine and methyl viologen) | current signal of the redox couple upon addition of avidin (egg white avidin; listed as [(4-DPEP)Ru(NH3)5](PF6)2) | rate of oxidation, avidin-bound versus free complex (avidin [1]) | kd of binding to avidin (avidin [2])
[(4-DMP)RU(NH3)5][PF6]2 [[(4-DMP)Ru(NH3)5]^2+] | increased nearly to the original level | the signal was regenerated | decreased | no effect on the current signal | – | – | –
[(4-DPEP)Ru(NH3)5][PF6]2 [[(4-DPEP)Ru(NH3)5]^2+] | – | – | decreased the signal | – | disappeared upon addition of avidin | qualitatively slower | –
C[C@@H]1NC(=O)N[C@@H]1CCCCCC(=O)O [desthiobiotin] | – | – | – | – | – | – | only slightly lower than that of biotin-avidin
